From patent US20240018136A1, “CDK Inhibitors And Their Use As Pharmaceuticals” (Prelude Therapeutics, Incorporated, priority 2022, published 2024)

Columns and labels:
CDK4/Cyclin D1 = molecular target: T1, CDK4/Cyclin D1 (Homo sapiens, UniProt P11802); test: CDK4/CyclinD1 enzymatic activity assay (TR-FRET); type: biochemical; conditions: ATP 2 mM final, read-out: CDK4_D1 IC50
T1 construct: purchased ProQinase; host or cells: insect cell
Summary of the method: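 Insect-cell-expressed CDK4/Cyclin D1 (1 nM) phosphorylated ULight-4E-BP1 peptide (100 nM) at 2 mM ATP in HEPES pH 7.4 buffer after 20 min compound preincubation. Reaction started with 10 mM MgCl2, ran 45 min at 37 °C, then EDTA quench and Eu-anti-phospho-4E-BP1 TR-FRET detection. IC50 from 9-point 3-fold dilutions, 4-parameter fit.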

CDK2/Cyclin E2 = CDK2/Cyclin E2 (Homo sapiens, UniProt P24941); test: CDK2/CyclinE2 enzymatic activity assay (TR-FRET); type: biochemical; conditions: ATP 1 mM final, read-out: CDK2_E1 IC50
Summary of the method: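 Insect-cell-expressed CDK2/Cyclin E2 (1 nM), ULight-4E-BP1 (50 nM) and ATP (1 mM) in HEPES pH 7.4 buffer were preincubated 20 min at RT with compound (9-dose, 3-fold), started with 10 mM MgCl2 and run 45 min at 37 °C. EDTA/Eu-anti-P-4E-BP1 stop, 60 min TR-FRET detection; IC50 from 4-parameter Hill fit.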

OVCAR3 p-RB = test: pRB ICW assay in OVCAR3 cells; type: cell-based; conditions: Homo sapiens, OVCAR-3, incubated with compound for 2 hours
Summary of the method: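 OVCAR3 cells were treated 2 h at 37 °C with a 9-point half-log compound series, in duplicate, with 10 μM reference compound as maximum inhibition. Cells were then fixed, permeabilized and stained with anti-phospho-RB plus DRAQ5. In-cell western intensities were read at 700/800 nm on Odyssey CLx.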

T1 sequence (P11802 whole entry): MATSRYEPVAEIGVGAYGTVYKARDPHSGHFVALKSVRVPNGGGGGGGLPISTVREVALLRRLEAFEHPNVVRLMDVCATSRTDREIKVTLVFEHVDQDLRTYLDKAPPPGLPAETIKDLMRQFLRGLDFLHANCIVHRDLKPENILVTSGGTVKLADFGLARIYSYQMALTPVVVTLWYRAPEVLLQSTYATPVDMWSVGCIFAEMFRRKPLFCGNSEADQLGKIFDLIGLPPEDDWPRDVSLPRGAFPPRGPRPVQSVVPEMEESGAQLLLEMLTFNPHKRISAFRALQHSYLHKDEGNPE
T1 sequence (P24385 whole entry partner): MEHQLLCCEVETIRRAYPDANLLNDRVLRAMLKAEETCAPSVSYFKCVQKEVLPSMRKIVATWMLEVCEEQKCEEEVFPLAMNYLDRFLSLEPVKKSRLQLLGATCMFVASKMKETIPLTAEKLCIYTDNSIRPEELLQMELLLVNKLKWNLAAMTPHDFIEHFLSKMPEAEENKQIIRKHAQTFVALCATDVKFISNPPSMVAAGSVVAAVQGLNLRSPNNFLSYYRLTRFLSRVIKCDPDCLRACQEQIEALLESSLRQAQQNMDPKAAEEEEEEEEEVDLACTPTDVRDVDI

IC50 (CDK4/Cyclin D1) [nM] | IC50 (CDK2/Cyclin E2) [nM] | IC50 (OVCAR3 p-RB) [nM] | SMILES
≤ 100 | ≤ 100 | ≤ 100 | Cc1ncc(-c2nc(N[C@H]3CCN(S(=O)(=O)c4cnn(C)c4)C[C@H]3F)ncc2C(F)(F)F)s1 [Example 94, N-((3R,4S)-3-fluoro-1-((1-methyl-1H-pyrazol-4-yl)sulfonyl)piperidin-4-yl)-4-(2-methylthiazol-5-yl)-5-(trifluoromethyl)pyrimidin-2-amine]
≤ 100 | ≤ 100 | 100 to 1000 | CC(O)c1ncc(-c2nc(NC3CCN(S(=O)(=O)c4cnn(CC(N)=O)c4)CC3)ncc2C(F)(F)F)s1 (stereo not drawn) [Example 87, 2-(4-((4-((4-(2-(1-hydroxyethyl)thiazol-5-yl)-5-(trifluoromethyl)pyrimidin-2-yl)amino)piperidin-1-yl)sulfonyl)-1H-pyrazol-1-yl)acetamide]
≤ 100 | ≤ 100 | ≤ 100 | Cn1cc(S(=O)(=O)N2CCC(Nc3ncc(C(F)(F)F)c(-c4cnc(C5(O)CCCC5)s4)n3)CC2)cn1 [Example 95, 1-(5-(2-((1-((1-methyl-1H-pyrazol-4-yl)sulfonyl)piperidin-4-yl)amino)-5-(trifluoromethyl)pyrimidin-4-yl)thiazol-2-yl)cyclopentan-1-ol]
100 to 1000 | ≤ 100 | > 1000 | CS(=O)(=O)N1CCC(Nc2ncc(C(F)(F)F)c(-c3cnc(C(F)F)s3)n2)CC1 [Example 42, 4-[2-(Difluoromethyl)-1,3-thiazol-5-yl]-N-(1-methylsulfonylpiperidin-4-yl)-5-(trifluoromethyl)pyrimidin-2-amine]
≤ 100 | ≤ 100 | 100 to 1000 | Cn1cnc(S(=O)(=O)N2CCC(Nc3ncc(C(F)(F)F)c(-c4cnc(C(O)C(C)(C)O)s4)n3)CC2)c1 (stereo not drawn) [Example 75, 2-methyl-1-(5-(2-((1-((1-methyl-1H-imidazol-4-yl)sulfonyl)piperidin-4-yl)amino)-5-(trifluoromethyl)pyrimidin-4-yl)thiazol-2-yl)propane-1,2-diol]
≤ 100 | ≤ 100 | ≤ 100 | Cn1cc(S(=O)(=O)N2CCC(Nc3ncc(C(F)(F)F)c(-c4cnc(C(O)C(F)F)s4)n3)CC2)cn1 (stereo not drawn) [Example 92, 2,2-difluoro-1-(5-(2-((1-((1-methyl-1H-pyrazol-4-yl)sulfonyl)piperidin-4-yl)amino)-5-(trifluoromethyl)pyrimidin-4-yl)thiazol-2-yl)ethan-1-ol]
100 to 1000 | ≤ 100 | > 1000 | CC(O)c1ncc(-c2nc(N[C@H]3CCN(S(=O)(=O)c4cnn(C)c4)C[C@@H]3F)ncc2C(F)(F)F)s1 (stereo partly drawn) [Example 100, 1-(5-(2-(((3S,4S)-3-fluoro-1-((1-methyl-1H-pyrazol-4-yl)sulfonyl)piperidin-4-yl)amino)-5-(trifluoromethyl)pyrimidin-4-yl)thiazol-2-yl)ethan-1-ol]

The remaining lines, values behind:

SMILES | IC50 (CDK4/Cyclin D1) [nM] | IC50 (CDK2/Cyclin E2) [nM] | IC50 (OVCAR3 p-RB) [nM]
Cc1cc(CO)ccc1-c1nc(C)c(-c2nc(NC3CCN(S(C)(=O)=O)CC3)ncc2F)s1 [Example 15, [4-[5-[5-fluoro-2-[(1-methylsulfonylpiperidin-4-yl)amino]pyrimidin-4-yl]-4-methyl-1,3-thiazol-2-yl]-3-methylphenyl]methanol] | 100 to 1000 | ≤ 100 | > 1000
CCNS(=O)(=O)N1CCC(Nc2ncc(C(F)(F)F)c(-c3cnc(C)s3)n2)CC1 [Example 48, N-Ethyl-4-((4-(2-methylthiazol-5-yl)-5-(trifluoromethyl)pyrimidin-2-yl)amino)piperidine-1-sulfonamide] | 100 to 1000 | ≤ 100 | > 1000
[2H]C([2H])([2H])Nc1ncc(-c2nc(NC3CCN(S(C)(=O)=O)CC3)ncc2C(F)(F)F)s1 [Example 39, 5-[2-[(1-Methylsulfonylpiperidin-4-yl)amino]-5-(trifluoromethyl)pyrimidin-4-yl]-N-(trideuteriomethyl)-1,3-thiazol-2-amine] | ≤ 100 | ≤ 100 | 100 to 1000
Cc1nn(CCO)cc1-c1ncc(-c2nc(NC3CCN(S(C)(=O)=O)CC3)ncc2C(F)(F)F)s1 [Example 17, 2-[3-methyl-4-[5-[2-[(1-methylsulfonylpiperidin-4-yl)amino]-5-(trifluoromethyl)pyrimidin-4-yl]-1,3-thiazol-2-yl]pyrazol-1-yl]ethanol] | 100 to 1000 | 100 to 1000 | 100 to 1000
CC(C)(O)Cc1ncc(-c2nc(N[C@H]3CCN(S(C)(=O)=O)C[C@H]3F)ncc2C(F)(F)F)s1 [Example 69, 1-(5-(2-(((3R,4S)-3-fluoro-1-(methylsulfonyl)piperidin-4-yl)amino)-5-(trifluoromethyl)pyrimidin-4-yl)thiazol-2-yl)-2-methylpropan-2-ol] | ≤ 100 | ≤ 100 | ≤ 100
Cc1ccc(-c2ncc(-c3nc(NC4CCN(S(C)(=O)=O)CC4)ncc3C(F)(F)F)s2)c(C)c1 [Example 11, 4-[2-(2,4-dimethylphenyl)-1,3-thiazol-5-yl]-N-(1-methylsulfonyl-piperidin-4-yl)-5-(trifluoromethyl)pyrimidin-2-amine] | 100 to 1000 | ≤ 100 | > 1000
Cn1cnc(S(=O)(=O)N2CC[C@H](Nc3ncc(C(F)(F)F)c(-c4cnc(CC(C)(C)O)s4)n3)[C@H](F)C2)c1 [Example 74, 1-(5-(2-(((3R,4S)-3-fluoro-1-((1-methyl-1H-imidazol-4-yl)sulfonyl)piperidin-4-yl)amino)-5-(trifluoromethyl)pyrimidin-4-yl)thiazol-2-yl)-2-methylpropan-2-ol] | ≤ 100 | ≤ 100 | ≤ 100
COC(=O)Nc1ncc(-c2nc(NC3CCN(S(C)(=O)=O)CC3)ncc2C(F)(F)F)s1 [Example 54, Methyl N-[5-[2-[(1-methylsulfonylpiperidin-4-yl)amino]-5-(trifluoromethyl)pyrimidin-4-yl]-1,3-thiazol-2-yl]carbamate] | 100 to 1000 | ≤ 100 | > 1000
Cc1ncc(-c2nc(NC3CCN(S(=O)(=O)c4ccn(C)n4)CC3)ncc2C(F)(F)F)s1 [Example 59, N-[1-(1-Methylpyrazol-3-yl)sulfonylpiperidin-4-yl]-4-(2-methyl-1,3-thiazol-5-yl)-5-(trifluoromethyl)pyrimidin-2-amine] | ≤ 100 | ≤ 100 | 100 to 1000
CS(=O)(=O)N1CCC(Nc2ncc(C(F)(F)F)c(-c3cnc(CN)s3)n2)CC1 [Example 64, 4-[2-(Aminomethyl)-1,3-thiazol-5-yl]-N-(1-methylsulfonylpiperidin-4-yl)-5-(trifluoromethyl)pyrimidin-2-amine] | 100 to 1000 | ≤ 100 | > 1000
CS(=O)(=O)N1CCC(Nc2ncc(C(F)(F)F)c(-c3cnc(C4CCOCC4)s3)n2)CC1 [Example 3, N-(1-methylsulfonylpiperidin-4-yl)-4-[2-(oxan-4-yl)-1,3-thiazol-5-yl]-5-(trifluoromethyl)pyrimidin-2-amine] | ≤ 100 | ≤ 100 | 100 to 1000
CS(=O)(=O)N1CCC(Nc2ncc(C(F)(F)F)c(-c3cnc(C4=CCOCC4)s3)n2)CC1 [Example 2, 4-[2-(3,6-Dihydro-2H-pyran-4-yl)-1,3-thiazol-5-yl]-N-(1-methyl-sulfonylpiperidin-4-yl)-5-(trifluoromethyl)pyrimidin-2-amine] | ≤ 100 | 100 to 1000 | 100 to 1000
CN1CCN(CCCS(=O)(=O)N2CCC(Nc3ncc(C(F)(F)F)c(-c4cnc(CC(C)(C)O)s4)n3)CC2)CC1 [Example 80, 2-methyl-1-(5-(2-((1-((3-(4-methylpiperazin-1-yl)propyl)sulfonyl)piperidin-4-yl)amino)-5-(trifluoromethyl)pyrimidin-4-yl)thiazol-2-yl)propan-2-ol] | ≤ 100 | ≤ 100 | 100 to 1000
CNCc1ccc(-c2ncc(-c3nc(NC4CCN(S(C)(=O)=O)CC4)ncc3C(F)(F)F)s2)c(C)c1 [Example 13, 4-[2-[2-Methyl-4-(methylaminomethyl)phenyl]-1,3-thiazol-5-yl]-N-(1-methylsulfonylpiperidin-4-yl)-5-(trifluoromethyl)pyrimidin-2-amine] | ≤ 100 | ≤ 100 | 100 to 1000
CN(C)Cc1ncc(-c2nc(NC3CCN(S(C)(=O)=O)CC3)ncc2C(F)(F)F)s1 [Example 65, 4-[2-[(Dimethylamino)methyl]-1,3-thiazol-5-yl]-N-(1-methylsulfonylpiperidin-4-yl)-5-(trifluoromethyl)pyrimidin-2-amine] | 100 to 1000 | ≤ 100 | > 1000
Cn1cnc(S(=O)(=O)N2CCC(Nc3ncc(C(F)(F)F)c(-c4cnc(CC(C)(C)O)s4)n3)CC2)c1 [Example 70, 2-methyl-1-(5-(2-((1-((1-methyl-1H-imidazol-4-yl)sulfonyl)piperidin-4-yl)amino)-5-(trifluoromethyl)pyrimidin-4-yl)thiazol-2-yl)propan-2-ol] | ≤ 100 | ≤ 100 | ≤ 100
CCNc1ncc(-c2nc(NC3CCN(S(C)(=O)=O)CC3)ncc2C(F)(F)F)s1 [Example 32, N-ethyl-5-[2-[(1-methylsulfonylpiperidin-4-yl)amino]-5-(trifluoromethyl)pyrimidin-4-yl]-1,3-thiazol-2-amine] | ≤ 100 | ≤ 100 | 100 to 1000
